Laboratory results published in PubChem BioAssay (NCI).
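These data come from cells grown in 96-well plates and exposed to compound for 48 hours at five concentrations. At the TGI there is no net growth.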

How the values were obtained:
Assay in all cases: inhibition of tumour cell growth, NCI panel, 48 h
SK-MEL-5 melanoma = tested on: SK-MEL-5 melanoma
HS 578T breast = tested on: HS 578T breast
HL-60(TB) leukemia = tested on: HL-60(TB) leukemia
COLO 205 colon = tested on: COLO 205 colon
UO-31 renal = tested on: UO-31 renal
MOLT-4 leukemia = tested on: MOLT-4 leukemia
MDA-N = tested on: MDA-N
HCT-116 colon = tested on: HCT-116 colon
ACHN renal = tested on: ACHN renal
SNB-19 CNS = tested on: SNB-19 CNS
RPMI-8226 leukemia = tested on: RPMI-8226 leukemia
HOP-92 NSCLC = tested on: HOP-92 NSCLC
OVCAR-8 ovarian = tested on: OVCAR-8 ovarian
OVCAR-3 ovarian = tested on: OVCAR-3 ovarian
786-0 renal = tested on: 786-0 renal
NCI/ADR-RES ovarian = tested on: NCI/ADR-RES ovarian
NCI-H460 lung = tested on: NCI-H460 lung
K-562 leukemia = tested on: K-562 leukemia
HCC-2998 colon = tested on: HCC-2998 colon
BT-549 breast = tested on: BT-549 breast

| Compound | TGI (SK-MEL-5 melanoma) | TGI (HS 578T breast) | TGI (HL-60(TB) leukemia) | TGI (COLO 205 colon) | TGI (UO-31 renal) | TGI (MOLT-4 leukemia) | TGI (MDA-N) | TGI (HCT-116 colon) | TGI (ACHN renal) | TGI (SNB-19 CNS) | TGI (RPMI-8226 leukemia) | TGI (HOP-92 NSCLC) | TGI (OVCAR-8 ovarian) | TGI (OVCAR-3 ovarian) | TGI (786-0 renal) | TGI (NCI/ADR-RES ovarian) | TGI (NCI-H460 lung) | TGI (K-562 leukemia) | TGI (HCC-2998 colon) | TGI (BT-549 breast) |
| --- | --- | --- | --- | --- | --- | --- | --- | --- | --- | --- | --- | --- | --- | --- | --- | --- | --- | --- | --- | --- |
| O=C1OCCC[C@H]2O[C@@H](COCc3ccccc3)C[C@@H]12 | > 100 µM | > 100 µM | > 100 µM | > 100 µM | > 100 µM | > 100 µM | > 100 µM | > 100 µM | > 100 µM | > 100 µM | > 100 µM | > 100 µM | > 100 µM | > 100 µM | > 100 µM | > 100 µM | > 100 µM | > 100 µM | – | – |
| c1ccc2c3nnc(c2c1)SCCCSc1nnc(c2ccccc12)SCCCS3 | 72.2 µM | – | > 100 µM | > 100 µM | > 100 µM | > 100 µM | > 100 µM | > 100 µM | > 100 µM | > 100 µM | > 100 µM | 94.3 µM | > 100 µM | > 100 µM | > 100 µM | 86.4 µM | > 100 µM | > 100 µM | > 100 µM | – |
| NNc1ncc2c(n1)-c1ccccc1OC2 | > 100 µM | > 100 µM | 45.8 µM | > 100 µM | > 100 µM | > 100 µM | > 100 µM | > 100 µM | > 100 µM | > 100 µM | > 100 µM | > 100 µM | > 100 µM | > 100 µM | > 100 µM | > 100 µM | > 100 µM | > 100 µM | – | – |
| CCOC(=O)CC(NCc1ccc(N=Cc2nc3ccc(C(F)(F)F)cc3nc2-c2ccccc2)cc1)C(=O)OCC (stereo not drawn) | > 100 µM | – | > 100 µM | > 100 µM | > 100 µM | > 100 µM | – | > 100 µM | > 100 µM | > 69.8 µM | > 100 µM | > 100 µM | > 100 µM | > 100 µM | > 100 µM | – | > 100 µM | > 100 µM | > 100 µM | – |
| COc1c(C)c(O)c2c(c1C)OC(c1ccccc1)CC2=O (stereo not drawn) | – | – | 90.5 µM | – | > 100 µM | > 100 µM | – | > 100 µM | > 100 µM | – | > 100 µM | > 100 µM | > 100 µM | > 100 µM | > 100 µM | – | > 100 µM | > 100 µM | > 100 µM | – |
| Cc1c/c(=N/NC(=O)c2ccncc2)n2nc(N)sc2n1 | > 100 µM | – | > 100 µM | > 100 µM | > 100 µM | > 100 µM | – | > 100 µM | > 100 µM | > 100 µM | > 100 µM | > 100 µM | > 100 µM | > 100 µM | > 100 µM | > 100 µM | > 100 µM | > 100 µM | > 100 µM | > 100 µM |
| Cc1nc2ccc(N)cc2[nH]c1=O | > 100 µM | – | > 100 µM | > 100 µM | > 100 µM | > 100 µM | – | > 100 µM | > 100 µM | > 100 µM | > 100 µM | > 100 µM | > 100 µM | > 100 µM | > 100 µM | – | > 100 µM | > 100 µM | > 100 µM | – |
| O=C(c1ccccc1)N1CCC(Nc2nccs2)O1 (stereo not drawn) | > 10 µM | > 10 µM | > 10 µM | > 10 µM | > 10 µM | > 10 µM | – | > 10 µM | > 10 µM | > 10 µM | > 10 µM | – | > 10 µM | > 10 µM | > 10 µM | > 10 µM | > 10 µM | > 10 µM | > 10 µM | > 10 µM |
| CCOC(=O)c1c2ccc(/C=C/c3ccccc3)ccc-2c(C(=O)OCC)c1N | > 100 µM | – | > 100 µM | > 100 µM | > 100 µM | > 100 µM | – | > 100 µM | > 100 µM | > 100 µM | – | > 100 µM | – | > 100 µM | > 100 µM | – | > 100 µM | > 100 µM | > 100 µM | – |
| COc1c(Br)cc(/C=C(\C#N)c2ccccn2)cc1Br | > 100 µM | – | > 100 µM | > 100 µM | > 100 µM | > 100 µM | – | > 100 µM | > 100 µM | > 100 µM | > 100 µM | – | > 100 µM | > 100 µM | 25.6 µM | > 100 µM | > 100 µM | > 100 µM | > 100 µM | 94.8 µM |
| C[N+]1(C)C[C@@H](O)C[C@@H]1C(=O)[O-] | – | – | > 100 µM | > 100 µM | > 100 µM | > 100 µM | – | > 100 µM | > 100 µM | > 100 µM | > 100 µM | > 100 µM | > 100 µM | > 100 µM | > 100 µM | – | > 100 µM | > 100 µM | > 100 µM | – |
| N#CC1CCCCC1NC1(C#N)CCCCC1 (stereo not drawn) | > 100 µM | – | > 100 µM | > 100 µM | > 100 µM | > 100 µM | – | – | – | > 100 µM | > 100 µM | – | > 100 µM | > 100 µM | > 100 µM | – | – | > 100 µM | > 100 µM | – |
| C=C(C)CC(C)(c1cc2ccccc2n1C)N1CCOCC1 (stereo not drawn) | > 100 µM | – | > 100 µM | > 100 µM | > 100 µM | > 100 µM | – | > 100 µM | > 100 µM | > 100 µM | – | > 100 µM | > 100 µM | > 100 µM | > 100 µM | – | > 100 µM | – | > 100 µM | – |
| COc1ccc2nc3c([N+](=O)[O-])ccc(NCCN(C)C)c3c(NCCN(C)C)c2c1 | 3.28 µM | – | 3.02 µM | > 10 µM | – | 0.732 µM | 3.13 µM | – | – | – | 1.97 µM | > 10 µM | 3.04 µM | – | 1.98 µM | – | – | 3.42 µM | 2.25 µM | – |
